According to patent publication US20080038381A1, “APPLICATION OF GREEN TEA EXTRACT AND ITS MAJOR COMPONENTS IN KELOID SCAR THERAPY” (UNIVERSITY OF SOUTHERN CALIFORNIA, priority 2006, published 2008):

How the values were obtained:
Type in all cases: cell-based, human
p-4E-BP = experiment: HMC-1-stimulated p-4E-BP level in keloid fibroblasts (Western blot); settings: keloid fibroblasts pretreated 1 h, co-culture 1 h
Description: (§1) FIG. 5 Effects of GTE and EGCG on mast cell-stimulated activation of ERK1/2 and Akt, phosphorylation of p70S6K and 4E-BP-1 in keloid fibroblasts. Keloid fibroblasts (KFs) were pretreated with different concentrations of GTE or EGCG, or various kinase inhibitors for 1 h, followed by direct co-culture with the same number of HMC-1 cells under normal culturing condition for 1 h. Equal amount of cell lysates was subjected to Western blot analysis with an antibodies against ERK1/2 (a), p38 MAPK (b), Akt, p70S6K and 4E-BP1 (c) as described in Materials and Methods. Data presented are representative of results from 3 independent experiments. Keloid fibroblasts (1×10^5/well) were seeded on the bottom of a 6-well plate and maintained at normal culturing conditions for at least 24 h. Different densities of HMC-1 cells were seeded on top of the monolayer of fibroblasts and co-cultured for different time intervals based on experimental purposes. […] Total protein concentrations of whole cell lysates were determined using BioRad BCA method (PIERCE, Rockford, Ill.). […]

HMC-1 cells = experiment: Cell viability by MTT assay, HMC-1 cells; settings: different concentrations, 24 h, normal conditions
phosphorylated ERK1/2 = experiment: HMC-1-stimulated phosphorylated ERK1/2 level in keloid fibroblasts (Western blot); settings: keloid fibroblasts pretreated 1 h, co-culture 1 h
Description: (§2) FIG. 5 Effects of GTE and EGCG on mast cell-stimulated activation of ERK1/2 and Akt, phosphorylation of p70S6K and 4E-BP-1 in keloid fibroblasts. Keloid fibroblasts (KFs) were pretreated with different concentrations of GTE or EGCG, or various kinase inhibitors for 1 h, followed by direct co-culture with the same number of HMC-1 cells under normal culturing condition for 1 h. Equal amount of cell lysates was subjected to Western blot analysis with an antibodies against ERK1/2 (a), p38 MAPK (b), Akt, p70S6K and 4E-BP1 (c) as described in Materials and Methods. Data presented are representative of results from 3 independent experiments.
(§3) Keloid fibroblasts (1×10^5/well) were seeded on the bottom of a 6-well plate and maintained at normal culturing conditions for at least 24 h. Different densities of HMC-1 cells were seeded on top of the monolayer of fibroblasts and co-cultured for different time intervals based on experimental purposes. […]
(§4) To determine type I collagen, and phosphorylated ERK1/2 and Akt levels, cells were solubilized in lysis buffer (50 mM Tris-HCl, pH 7.5, 150 mM NaCl, 5 mM EDTA, 200 μM Na3VO4, 50 mM NaF, 0.5% Triton X-100) supplemented with 10 mM dithiothreitol (DTT), 200 FM phenylmethylsulfonyl fluoride (PMSF) and protease inhibitor cocktails (Sigma). Total protein concentrations of whole cell lysates were determined using BioRad BCA method (PIERCE, Rockford, Ill.). […]

keloid fibroblasts = experiment: Cell viability by MTT assay, keloid fibroblasts; settings: different concentrations, 24 h, normal conditions
p-p70S6K = experiment: HMC-1-stimulated p-p70S6K level in keloid fibroblasts (Western blot); settings: keloid fibroblasts pretreated 1 h, co-culture 1 h
Description: as §2, §3, §4

[1] = tested on: type I collagen expression in keloid fibroblasts co-cultured with HMC-1 cells; experiment: HMC-1-stimulated type I collagen expression in co-cultured keloid fibroblasts (Western blot); settings: pretreated 1 h, then co-culture with same density of HMC-1 cells (1:1) for 24 h
Description: (§5) Keloid fibroblasts (1×10^5/well) were seeded on the bottom of a 6-well plate and maintained at normal culturing conditions for at least 24 h. Different densities of HMC-1 cells were seeded on top of the monolayer of fibroblasts and co-cultured for different time intervals based on experimental purposes. To observe the effects of GTE and EGCG or various specific kinase inhibitors on type I collagen expression in keloid fibroblasts co-cultured with HMC-1 cells, fibroblasts at about 80% confluence were pretreated with different concentrations of GTE, EGCG, or various kinase inhibitors for 1 h followed by co-culturing with the same cell density of HMC-1 cells (1:1) under normal culturing conditions for indicated time periods. Cell lysates were prepared for Western blot analysis.
To determine type I collagen, and phosphorylated ERK1/2 and Akt levels, cells were solubilized in lysis buffer (50 mM Tris-HCl, pH 7.5, 150 mM NaCl, 5 mM EDTA, 200 μM Na3VO4, 50 mM NaF, 0.5% Triton X-100) supplemented with 10 mM dithiothreitol (DTT), 200 FM phenylmethylsulfonyl fluoride (PMSF) and protease inhibitor cocktails (Sigma). Total protein concentrations of whole cell lysates were determined using BioRad BCA method (PIERCE, Rockford, Ill.). Equal amounts of protein sampled from whole cell lysates were subjected to electrophoresis on 7.5%-10% sodium dodecyl sulfate (SDS)-polyacrylamide gels and electroblotted onto nitrocellulose membranes (Hybond ECL, Amersham Pharmacia). After blocking with Tris-buffered saline (TBS)/5% skim milk, the membranes were incubated overnight at 4 °C with primary antibodies against human type I collagen, total or phosphorylated ERK1/2 (Thr202/Tyr204) or Akt (Ser473). Membranes were subsequently washed, incubated with a horseradish peroxidase (HRP) conjugated secondary:antibodies (1:2000) (Pierce, Rockford, Ill.) for 1 h at room temperature, and visualized using an enhanced chemiluminescent (ECL) detection.

phosphorylated p38 MAPK = experiment: HMC-1-stimulated phosphorylated p38 MAPK level in keloid fibroblasts (Western blot); settings: keloid fibroblasts pretreated 1 h, co-culture 1 h
Description: as §2, §3, §4

[2] = tested on: pro-COL1A1 and COL1A2 gene mRNA; experiment: COL1A1 and COL1A2 mRNA levels by RT-PCR in co-cultured keloid fibroblasts and HMC-1 cells; settings: pretreated 1 h, co-culture with HMC-1 cells 24 h
Description: as §5
Total RNA was isolated from […] using TRIZOL® Reagent (Invitrogen). RT-PCR analysis of COL1A1, COL1A2 and β-actin mRNA levels was performed using the One-step RT-PCR Kit (QIAGEN, Valencia, Calif.) with primers specific to COL1A1: forward primer 5′-[…]-3′ and reverse primer 5′-[…]-3′; primers for COL1A2: forward primer 5′-[…]-3′ and reverse primer 5′-[…]-3′ (Stefanovic et al., 2005); primers for […]1-actin: forward primer 5′-[…]-3′ and reverse primer 5′-[…]-3′. All the primers were synthesized by Microchemical Core Facility, Norris Cancer Center of University of Southern California.

[3] = tested on: type I collagen in keloid fibroblasts; experiment: Basal (constitutive) type I collagen level in keloid fibroblasts (Western blot); settings: keloid fibroblasts alone, 24 h
Description: Equal amount of cell lysates (100 μg) was subjected to Western blot analysis with an anti-type I collagen antibody as described in Materials and Methods. […] (c) KFs were cultured in the presence of different concentrations of GTE or EGCG for 24 h, and type I collagen levels were determined by Western blot. (d) Denssitometric analysis of results from c. […] The results represent three independent experiments and expressed as the mean ±SD.
To determine type I collagen, and phosphorylated ERK1/2 and Akt levels, cells were solubilized in lysis buffer (50 mM Tris-HCl, pH 7.5, 150 mM NaCl, 5 mM EDTA, 200 μM Na3VO4, 50 mM NaF, 0.5% Triton X-100) supplemented with 10 mM dithiothreitol (DTT), 200 FM phenylmethylsulfonyl fluoride (PMSF) and protease inhibitor cocktails (Sigma). Total protein concentrations of whole cell lysates were determined using BioRad BCA method (PIERCE, Rockford, Ill.). Equal amounts of protein sampled from whole cell lysates were subjected to electrophoresis on 7.5%-10% sodium dodecyl sulfate (SDS)-polyacrylamide gels and electroblotted onto nitrocellulose membranes (Hybond ECL, Amersham Pharmacia). […]
To find out whether GTE and EGCG have any effects on the basal level of type I collagen in keloid fibroblasts, cells were cultured in the presence of different concentrations of GTE or EGCG for 24 hours and type I collagen levels were determined by Western blot.

phosphorylated Akt = experiment: HMC-1-stimulated phosphorylated Akt level in keloid fibroblasts (Western blot); settings: keloid fibroblasts pretreated 1 h, co-culture 1 h
Description: as §1

With `O=C(O[C@@H]1Cc2c(O)cc(O)cc2O[C@@H]1c1cc(O)c(O)c(O)c1)c1cc(O)c(O)c(O)c1` [EGCG, (−)-epigallocatechin-3-gallate] the “p-4E-BP level stimulated by HMC-1 cells” value (p-4E-BP) was “dose-dependent reduction”, the “cell viability (MTT), HMC-1 cells” value (HMC-1 cells) was “No obvious changes in cell viability” and the “phosphorylated ERK1/2 level stimulated by co-culture with HMC-1 cells” value (phosphorylated ERK1/2) was “did not have any obvious inhibitory effects”. The “cell viability (MTT), keloid fibroblasts” value (keloid fibroblasts) was “No obvious changes in cell viability”, the “p-p70S6K level stimulated by HMC-1 cells” value (p-p70S6K) was “dose-dependent reduction” and the “HMC-1-stimulated type I collagen expression (protein production) in keloid fibroblasts” value [1] was “dose-dependent reduction”. For the same compound, the “phosphorylated p38 MAPK level stimulated by co-culture with HMC-1 cells” value (phosphorylated p38 MAPK) was “did not have any obvious inhibitory effects”, the “HMC-1-stimulated type I collagen mRNA messages (pro-COL1A1, COL1A2) in keloid fibroblasts” value [2] was “dose-dependent reduction” and the “constitutive (basal) expression of type I collagen in keloid fibroblasts” value [3] was “inhibited the constitutive expression of type I collagen in a dose-dependent manner”. For the same compound, the “phosphorylated Akt level stimulated by HMC-1 cells” value (phosphorylated Akt) was “dose-dependent reduction”.

In the case of `COc1cccc(-c2cc(=O)c3ccccc3o2)c1N` [PD98059], the “HMC-1-stimulated type I collagen expression (protein production) in keloid fibroblasts” value [1] is reported as “no obvious inhibitory effects”.

For `C[S+]([O-])c1ccc(-c2nc(-c3ccncc3)c(-c3ccc(F)cc3)[nH]2)cc1` (stereo not shown) [SB203580], the “HMC-1-stimulated type I collagen expression (protein production) in keloid fibroblasts” value [1] was “dose dependent inhibition”.

With `N#CC(=C(/N)Sc1ccccc1N)/C(C#N)=C(\N)Sc1ccccc1N` [U0126] the “HMC-1-stimulated type I collagen expression (protein production) in keloid fibroblasts” value [1] was “no obvious inhibitory effects”.
